According to patent US12054562B2, “Cell-permeable inhibitory agent and methods of use thereof in treatment of cognitive and mood disorders” (priority 2015, dated 2024):

How the values were obtained:
[1] = system: α5GABAA receptor cell-surface expression; assay: Receptor cell-surface ELISA assay in cultured hippocampal neurons; assay type: cell-based, mouse; details: neurons treated with peptide without exposure to etomidate
[2] = target: T1, α5 subunit-radixin interaction (Mus musculus, UniProt P26043); assay: Co-immunoprecipitation and Western blot of α5 subunit-radixin coupling in hippocampal tissue lysate; assay type: binding; details: 20 μM peptide without TAT sequence, one hour incubation
T1 construct: tissue lysate prepared from the hippocampus of adult mice; from tissue; host or cells: hippocampus of adult mice (C57BL/6J×SvEv)
Procedure: The experiments used tissue lysate prepared from the hippocampus of adult mice (C57BL/6J×SvEv, 2-4 month old, male). Hippocampal tissue was homogenized in ice-cold RIPA buffer (20 mM Tris-HCL, pH 7.5, 150 mM NaCl, 1 mM Na2EDTA, 1 mM EGTA, 1% NP-40, 1% sodium deoxycholate, 2.5 mM sodium pyrophosphate, 1 mM β-glycerophosphate) supplemented with 1 mM sodium orthovanadate and 1% protease inhibitor cocktail and 1% phosphatase inhibitor cocktail (Roche Diagnostics, GmbH, Manheim Germany). The tissue lysate was subsequently spun at 14,000 rpm for 30 min with the Microfuge 22R Centrifuge (Beckman Coulter™, Brea, California, US). The supernatant was collected and frozen at −20 C°. The next day, the supernatant, after thawing, was re-centrifuged at 14,000 rpm for another 30 min to clear the potential undissolved or pellet substances. After spinning twice, the supernatant was collected for subsequent experiments.
One hour following the incubation, the antibodies (2-4 μg) against either α5 subunit (cat #sc—31417, Santa Cruz Biotechnology, Inc., 10410 Finnell St. Dallas, TX, 75220, USA) or radixin (cat #ab91312, Abcam Inc., c/o 913860, PO Box 4090 Stn A, Toronto, ON M5W 0E9), or 4 μg of non-specific IgG protein (cat #sc—2028, Santa Cruz Biotechnology, Inc., 10410 Finnell St. Dallas, TX, 75220, USA), were added to the lysate solution. […]

mice = details: mouse, in vivo
Procedure: In the present study, mice were handled two times a day, 5 min each before start of behavioral experiments. Object recognition was assessed in a circle opaque chamber with the diameter of 38.5 cm in a regular lit room. Each mouse was habituated to the chamber for 5 min since day 3. During the training phase, the mouse was allowed to explore two identical objects for 5 min. The mouse was then returned to its home cage for a retention period of 1 h. The mouse was reintroduced to the training context and presented with one familiar object and one novel object for 5 min. Movement and interaction with the objects was recorded with a video camera that was mounted above the chamber. The exploratory behavior and mouse activity was analyzed blindly by a person with a good training and the software EthoVision, XT v11.5 provided by the Noldus Information Tech Inc., (Leesburg VA, USA). Exploratory behavior was defined as sniffing, licking, or touching the object while facing the object. Memory was assessed by measuring the novelty preference ratio (i.e., the ratio of time spent exploring the novel object to the time spent exploring both objects). […] Total interaction time with both objects was compared between groups to determine whether the treatments affected locomotor activity or exploration during the testing phase.
Specifically, we studied whether the use of the inhibitory peptide with etomidate prevented etomidate-induced memory deficits (attributed to the increase in cell surface expression of α5GABAA receptors). […] Saline and 35% propylene glycol were used as the vehicle control. NOR was conducted the next day.

[3] = system: etomidate-induced memory deficits in mice; assay: Novel object recognition task, prevention paradigm; assay type: in vivo, mouse; details: Etom 8 mg/kg plus α5 peptide 20 mg/kg i.p., NOR next day
Source text: The novel object recognition task involves the presentation of two identical objects for visual inspection (in the case of humans and non-human primates) and exploration in the case of rodents. After a delay, one of the original objects is presented together with a new (novel) object. Humans and animals normally spend time more time looking at (or in the case of mice, exploring) the novel object. Indeed, the test relies on the innate preference of humans and animals for novelty. The inspection or interaction time differs only if the familiar object is recognized. Otherwise, the subject spends an equal amount of time inspecting both objects. […]
In the present study, mice were handled two times a day, 5 min each before start of behavioral experiments. Object recognition was assessed in a circle opaque chamber with the diameter of 38.5 cm in a regular lit room. […] Movement and interaction with the objects was recorded with a video camera that was mounted above the chamber. The exploratory behavior and mouse activity was analyzed blindly by a person with a good training and the software EthoVision, XT v11.5 provided by the Noldus Information Tech Inc., (Leesburg VA, USA). […] Memory was assessed by measuring the novelty preference ratio (i.e., the ratio of time spent exploring the novel object to the time spent exploring both objects). […]

T1 sequence (P26043 whole entry): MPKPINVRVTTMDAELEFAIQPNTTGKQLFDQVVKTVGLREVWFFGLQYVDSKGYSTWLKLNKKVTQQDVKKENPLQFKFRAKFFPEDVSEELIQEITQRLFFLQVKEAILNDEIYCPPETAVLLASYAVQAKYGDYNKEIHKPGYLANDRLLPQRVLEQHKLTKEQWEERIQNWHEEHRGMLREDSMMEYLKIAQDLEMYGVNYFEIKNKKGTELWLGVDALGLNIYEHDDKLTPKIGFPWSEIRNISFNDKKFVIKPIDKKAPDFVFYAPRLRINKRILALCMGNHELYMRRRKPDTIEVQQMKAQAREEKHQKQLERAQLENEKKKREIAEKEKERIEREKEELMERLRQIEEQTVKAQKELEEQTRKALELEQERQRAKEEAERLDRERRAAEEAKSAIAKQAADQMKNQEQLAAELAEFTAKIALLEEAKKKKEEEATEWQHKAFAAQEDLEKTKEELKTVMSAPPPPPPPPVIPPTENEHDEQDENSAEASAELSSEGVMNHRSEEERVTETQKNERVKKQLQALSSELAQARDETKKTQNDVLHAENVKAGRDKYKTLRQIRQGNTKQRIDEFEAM

NYFTKRGWAWDGKKAL [inhibitory peptide]
baseline α5GABAA receptors expression, total or cell surface level [1]: does not alter
association between α5 subunit and radixin [2]: reduced the association
Body Angle State Bent (mice): 6 ± 3 s
Body Angle State Bent (%) (mice): 2%
Body Angle State Straight (mice): 269 ± 45 s
Body Angle State Straight (%) (mice): 98%
Body Elongation State Contracted (mice): 48 ± 66 s
Body Elongation State Contracted (%) (mice): 16%
Body Elongation State Normal (mice): 252 ± 66 s
Body Elongation State Normal (%) (mice): 84%
Body Elongation State Stretched (mice): 0 s
Rotation Frequency (mice): 5.5 ± 1.7
etomidate-induced memory deficits (NOR, prevention) [3]: could prevent
